Measurements from PMC12640663 (Chemmedchem, 2025).
Several values for one entry are separate records, joined by “and”; a condition that tells them apart may be missing. Identical values can stand only once. Entries after “also recorded” stand apart in the source; their conditions may differ.

Tests used:
PTP1B = conditions: cited from earlier work
hPTP1B1–285 = molecular target: T1, hPTP1B1–285 (Homo sapiens, UniProt P18031); assay: PTP1B activity assay, short form hPTP1B1–285 (p‐NPP); format: biochemical; conditions: ± S.D; p‐NPP substrate, 15 min at 37 °C
T1 construct: hPTP1B1–285 (the short form with an N‐terminal catalytic domain)
T1 sequence (P18031 1-285): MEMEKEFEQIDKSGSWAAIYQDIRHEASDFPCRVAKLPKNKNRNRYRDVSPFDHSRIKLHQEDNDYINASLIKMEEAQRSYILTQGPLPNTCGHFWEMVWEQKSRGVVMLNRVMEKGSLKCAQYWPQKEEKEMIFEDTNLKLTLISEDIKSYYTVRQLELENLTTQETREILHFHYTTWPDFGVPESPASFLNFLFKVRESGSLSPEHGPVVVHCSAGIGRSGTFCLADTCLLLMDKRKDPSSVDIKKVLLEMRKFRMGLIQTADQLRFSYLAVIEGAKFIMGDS
Description: (§1) The inhibitory activity of PTP1B was assessed using two enzyme variants: hPTP1B1–285 (the short form with an N‐terminal catalytic domain) and hPTP1B1–400 (the long form with an intrinsically disordered C‐terminal regulatory domain). […] According to Coronel‐Tovar et al., the disordered region of the C‐terminal domain plays a crucial role in modulating PTP1B enzymatic activity.^[ [30] ^] […] Different concentrations of the compounds were evaluated to determine their IC50 values (Table 1 ).
To do so, these terpenoids were tested against hPTP1B1–285.
(§2) Recombinant human protein tyrosine phosphatase 1B, consisting of 400 and 285 amino acid residues, was used.^[ [35] ^] […] Aliquots of 0–10 µL of the test compounds (triplicate) were taken and incubated for 15 min at 37 °C with 85 µL of Tris buffer solution (50 mM, pH 6.8) containing PTP1B enzyme and 5 µL of p‐nitrophenyl phosphate substrate (p‐NPP, 10 mM). Absorbance was then measured at a wavelength of 405 nm. The inhibitory activity was determined according to Equation (1). (1) % PTP1B=(A405b/A405c)×100 where % PTP1B: Is the percentage of inhibition. A 405c: Is the corrected absorbance of the blank (A 405initial–A 405final). A 405b: Is the corrected absorbance of the compounds (A 405control–A 405compound).

TCPTP = molecular target: T2, TCPTP (Homo sapiens, UniProt P17706); assay: T‐cell protein tyrosine phosphatase (TCPTP) activity assay (p‐NPP); format: biochemical; conditions: for IC50: ± S.D, assessed up to 100 μM, read-out: TCPTP IC50
T2 sequence (P17706 1-415): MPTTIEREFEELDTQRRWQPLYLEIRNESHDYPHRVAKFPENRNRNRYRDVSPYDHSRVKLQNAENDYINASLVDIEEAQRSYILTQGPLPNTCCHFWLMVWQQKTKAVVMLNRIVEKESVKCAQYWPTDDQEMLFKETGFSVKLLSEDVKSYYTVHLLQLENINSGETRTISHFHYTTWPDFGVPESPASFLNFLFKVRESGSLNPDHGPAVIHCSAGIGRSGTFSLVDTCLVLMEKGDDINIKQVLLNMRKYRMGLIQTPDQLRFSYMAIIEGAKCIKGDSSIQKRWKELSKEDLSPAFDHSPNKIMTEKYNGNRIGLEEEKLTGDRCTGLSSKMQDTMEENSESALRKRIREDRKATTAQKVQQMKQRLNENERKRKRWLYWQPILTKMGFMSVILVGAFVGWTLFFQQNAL
Description: The effectiveness and safety of protein tyrosine phosphatase (PTP) inhibitors depend on their specificity. PTP1B and TCPTP serve different functions: PTP1B is involved in metabolism and cancer, while TCPTP regulates immune function. Inhibiting TCPTP could impact the immune response, whereas inhibiting PTP1B may benefit metabolic diseases without these side effects.^[ [20] ^, [34] ^, [35] ^] […] These compounds were assessed up to 100 μM (Table 1).
TCPTP enzyme reported by Mendoza et al. was used for this assay. […] Aliquots of 0–10 µL (triplicate) of the newly synthesized compounds, positive control, and solvent were taken. These were incubated with 85 µL of enzyme solution (Tris, 50 mM, pH 6.8, TCPTP) and 5 µL of substrate (p‐NPP, 10 mM) for 15 min at 37 °C.

HepG2 cells = assay: Cell viability with crystal violet; format: cell-based; conditions: 1 and 25 µM, 24 h
Description: Subsequently, we evaluated the same compounds in a HepG2 insulin‐resistant model.
A 96‐well plate was seeded with 3,000 cells per well and incubated for 24 h. Afterward, the cells were treated with test compounds at various concentrations for 24 h. After incubation, the media was removed, and 100 µL of 1% glutaraldehyde was added for 15 min. Afterward, the liquid was removed, and 50 µL of 0.5% crystal violet (dissolved in 25% methanol) was added for 30 min. The crystal violet staining solution was removed, and the plate was thoroughly washed with tap water. The precipitate was dissolved in a 10% acetic acid solution and mixed for 15 min. The absorbance was then measured at 590 nm using a plate reader (xMark Microplate Spectrophotometer—Bio‐Rad).
Figure S59. Cell viability assessment by crystal violet staining. HepG2 cell viability was evaluated
after treatment with the respective compounds at concentrations of 1 and 25 µM for 24 hours. Bar
graphs represent mean ± SEM.

hPTP1B1–400 [1] = molecular target: T3, hPTP1B1–400 (Homo sapiens, UniProt P18031); assay: Kinetic studies of PTP1B (hPTP1B1–400); conditions: for Ki: K i, hPTP1B1–400, p‐NPP 0.1 to 0.5 mM; for Ki / K m / V max: ± S.D; for Inhibition type: hPTP1B1–400; for K m / V max: hPTP1B1–400 with inhibitor;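 as to all read-outs here: enzyme kinetics run across a range of substrate and inhibitor levels, control lacking inhibitor, triplicate runs, parameters derived by fitting Michaelis–Menten style equations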
T3 sequence (P18031 1-400): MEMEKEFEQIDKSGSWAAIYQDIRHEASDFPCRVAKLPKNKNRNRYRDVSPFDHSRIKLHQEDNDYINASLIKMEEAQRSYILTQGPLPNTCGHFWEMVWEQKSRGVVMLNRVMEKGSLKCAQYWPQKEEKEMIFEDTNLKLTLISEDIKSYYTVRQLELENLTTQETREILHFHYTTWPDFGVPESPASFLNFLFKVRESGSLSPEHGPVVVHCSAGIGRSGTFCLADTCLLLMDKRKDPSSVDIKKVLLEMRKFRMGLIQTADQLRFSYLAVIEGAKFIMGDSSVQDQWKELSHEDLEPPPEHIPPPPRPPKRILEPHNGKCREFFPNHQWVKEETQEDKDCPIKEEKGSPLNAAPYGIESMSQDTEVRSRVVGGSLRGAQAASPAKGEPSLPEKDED
Description: Kinetic analyses were performed at various substrate and inhibitor concentrations.
The negative control was prepared with the enzyme and substrate in the absence of the inhibitor. Experiments were conducted in triplicate.^[ [30] ^] […] The kinetic parameters of enzyme inhibition, K m and V max, were determined by fitting the data to the Michaelis‐Menten model, Equation (3) (OriginPro 2018 (64‐bit) SR1). (3) y=VmaxX/Km+X´ where V max: is the maximum velocity, X: is the inhibitor concentration, K m: Michaelis constant.
(4) y=Vmax(X)/(Km/1+I/Ki)+X where V max: maximum velocity, X: substrate concentration, I: inhibitor concentration, K m: Michaelis constant, K i : inhibition constant.

hPTP1B1–400 [2] = molecular target: T3, hPTP1B1–400; assay: PTP1B activity assay, long form hPTP1B1–400 (p‐NPP); format: biochemical; set-up: hPTP1B1–400 (the long form with an intrinsically disordered C‐terminal regulatory domain); conditions: ± S.D; p‐NPP substrate, 15 min at 37 °C, triplicate
Description: as §1, §2

| Structure (SMILES) | IC50 (hPTP1B1–285) | IC50 (TCPTP) | Ki (hPTP1B1–400 [1]) | Inhibition type (hPTP1B1–400 [1]) | K m (hPTP1B1–400 [1]) | V max (hPTP1B1–400 [1]) | IC50 (hPTP1B1–400 [2]) | TCPTP inhibition (in words) (TCPTP; up to 100 μM) | type of PTP1B inhibition (PTP1B) | HepG2 cell viability (HepG2 cells) |
| --- | --- | --- | --- | --- | --- | --- | --- | --- | --- | --- |
| Cc1ccc(C(=O)Nc2ccc(S(=O)(=O)O)c3cc(S(=O)(=O)O)cc(S(=O)(=O)O)c23)cc1NC(=O)c1cccc(NC(=O)Nc2cccc(C(=O)Nc3cc(C(=O)Nc4ccc(S(=O)(=O)O)c5cc(S(=O)(=O)O)cc(S(=O)(=O)O)c45)ccc3C)c2)c1 [SU, suramin] |  |  |  |  |  |  |  |  | competitive and reversible inhibitor |  |
| Cc1ccc(-n2ncc3c2C(C)(C)C2CCC4(C)C(C(=O)C=C5C6CC(C)(C(=O)O)CCC6(C)CCC54C)C2(C)C3)cc1 (stereo not shown) [Compound 5c] | 31.6 ± 0.88 µM | > 100 µM | 220 nM and 224 nM | uncompetitive inhibition | 1.42 ± 0.32 mM | 1.54 ± 0.28 mM/min | 1570 ± 40 nM |  |  | No significant differences; also recorded: did not compromise HepG2 cell viability |
| [Na+].[Na+].[Na+].[O]=[V]([O-])([O-])[O-] [SOV, sodium orthovanadate] |  |  |  |  |  |  |  | inhibited both PTP1B and TCPTP | nonselective, competitive, and reversible inhibitor |  |

Now from value to compound, other results behind:

| IC50 (hPTP1B1–285) | IC50 (TCPTP) | Ki (hPTP1B1–400 [1]) | Inhibition type (hPTP1B1–400 [1]) | K m (hPTP1B1–400 [1]) | V max (hPTP1B1–400 [1]) | IC50 (hPTP1B1–400 [2]) | TCPTP inhibition (in words) (TCPTP; up to 100 μM) | Structure (SMILES) | type of PTP1B inhibition (PTP1B) | HepG2 cell viability (HepG2 cells) |
| --- | --- | --- | --- | --- | --- | --- | --- | --- | --- | --- |
|  | > 100 µM |  |  |  |  | 2050 ± 90 nM |  | Cc1ccc(-n2ncc3c2C(C)(C)C2CCC4(C)C(CC=C5C6CC(C)(C(=O)O)CCC6(C)CCC54C)C2(C)C3)cc1 (stereo not shown) [Compound 5a] |  |  |
|  | > 100 µM | 1160 ± 130 nM | uncompetitive inhibition | 0.53 ± 0.08 mM | 0.63 ± 0.06 mM/min | 2840 ± 260 nM |  | CC1(C(=O)O)CCC2(C)CCC3(C)C(=CCC4C5(C)Cc6c([nH]c7ccc(C(F)(F)F)cc67)C(C)(C)C5CCC43C)C2C1 (stereo not shown) [Compound 3b] |  |  |
